In this assay the test system is HBV viral load (viral production from HepAD38 cells). The assay is described as follows: Activity of test compounds on viral production from HepAD38 cells (viral load by qPCR of HBV core sequence). Format: cell-based. The following applies: Hepatitis B virus, HePAD38, 120 h, viral load lowering, 5 days, qPCR of supernatant, read-out: VL HepAD38 EC50 range. In short, it runs like this:
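HepAD38 cells seeded at 50,000/well in tetracycline-free medium with 2% FBS, treated 5 days at 37 °C with compounds from 10 μM top concentration. Supernatant HBV DNA quantified by TaqMan qPCR of core sequence against HBV DNA standards, relative to DMSO wells; viability by CellTiter-Glo; EC50/CC50 by four-parameter logistic fit.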
A general note: Quantitative PCR measures a nucleic acid by following its amplification.

EC50 data for 27 compounds are collected here from patent US12655130B2 (ASSEMBLY BIOSCIENCES, INC., priority 2020, dated 2026).

The term EC50 denotes the concentration that produces a half-maximal response. For the compound `Cn1cc(C2(O)CC3CC(c4ncn(C)c4C(=O)Nc4ccc(F)c(Cl)c4)CC3C2)cn1` (stereo not drawn) [Example 121, N-(3-chloro-4-fluorophenyl)-4-(5-hydroxy-5-(1-methyl-1H-pyrazol-4-yl)octahydropentalen-2-yl)-1-methyl-1H-imidazole-5-carboxamide], the EC50 is below 10 nM.
The figure for `Cc1nc(C2CC3CC(O)(C(F)(F)F)CC3C2)c(C(=O)Nc2ccc(F)c(Cl)c2)n1C` (stereo not drawn) [Example 26, N-(3-Chloro-4-fluorophenyl)-4-(5-hydroxy-5-(trifluoromethyl)octahydropentalen-2-yl)-1,2-dimethyl-1H-imidazole-5-carboxamide] is 10 to 50 nM; for `Cc1cn[nH]c1C1(O)CC2CC(c3ncn(C)c3C(=O)Nc3ccc(F)c(Cl)c3)CC2C1` (stereo not drawn) [Example 135, N-(3-chloro-4-fluorophenyl)-4-(5-hydroxy-5-(4-methyl-1H-pyrazol-5-yl)octahydropentalen-2-yl)-1-methyl-1H-imidazole-5-carboxamide] it is below 10 nM.
For `O=C(Nc1ccc(F)c(Cl)c1)c1c(C2CC3CC(O)CC3C2)nc2n1CCC2` (single isomer, unassigned) [Example 32, N-(3-Chloro-4-fluorophenyl)-2-(5-hydroxyoctahydropentalen-2-yl)-6,7-dihydro-5H-pyrrolo[1,2-a]imidazole-3-carboxamide], the concentration for a half-maximal effect (EC50) was 10 to 50 nM.
The figure for `Cn1cnc(C2CC3CC(O)(c4cc(C(F)(F)F)nn4C)CC3C2)c1C(=O)Nc1ccc(F)c(Cl)c1` (single isomer, unassigned) [Example 72, N-(3-Chloro-4-fluorophenyl)-4-(5-hydroxy-5-(1-methyl-3-(trifluoromethyl)-1H-pyrazol-5-yl)octahydropentalen-2-yl)-1-methyl-1H-imidazole-5-carboxamide] is below 10 nM; for `Cc1c(N)nn(C)c1C1(O)CC2CC(c3ncn(C)c3C(=O)Nc3ccc(F)c(Cl)c3)CC2C1` (stereo not drawn) [Example 75, 4-(5-(3-Amino-1,4-dimethyl-1H-pyrazol-5-yl)-5-hydroxyoctahydropentalen-2-yl)-N-(3-chloro-4-fluorophenyl)-1-methyl-1H-imidazole-5-carboxamide] it is below 10 nM; for `CCn1nccc1C1(O)CC2CC(c3ncn(C)c3C(=O)Nc3ccc(F)c(Cl)c3)CC2C1` (stereo not drawn) [Example 119, N-(3-chloro-4-fluorophenyl)-4-(5-(1-ethyl-1H-pyrazol-5-yl)-5-hydroxyoctahydropentalen-2-yl)-1-methyl-1H-imidazole-5-carboxamide] it is below 10 nM.
As for `Cn1cc(C2(O)CC3CC(c4ncn(C)c4C(=O)Nc4ccc(F)c(Cl)c4)CC3C2)c(C(F)F)n1` (stereo not drawn) [Example 132, N-(3-chloro-4-fluorophenyl)-4-(5-(3-(difluoromethyl)-1-methyl-1H-pyrazol-4-yl)-5-hydroxyoctahydropentalen-2-yl)-1-methyl-1H-imidazole-5-carboxamide], the concentration giving a half-maximal response (EC50) was below 10 nM.
Take `Cn1cnc(C2CC3CC(O)(c4ccc(F)cc4)CC3C2)c1C(=O)Nc1ccc(F)c(Cl)c1` (stereo not drawn) [Example 7, N-(3-Chloro-4-fluorophenyl)-4-(5-(4-fluorophenyl)-5-hydroxyoctahydropentalen-2-yl)-1-methyl-1H-imidazole-5-carboxamide]: the EC50 is below 10 nM.
Take `CC(O)c1cc(C2(O)CC3CC(c4ncn(C)c4C(=O)Nc4ccc(F)c(Cl)c4)CC3C2)n(C)n1` (stereo not drawn) [Example 109, N-(3-Chloro-4-fluorophenyl)-4-(5-hydroxy-5-(3-(1-hydroxyethyl)-1-methyl-1H-pyrazol-5-yl)octahydropentalen-2-yl)-1-methyl-1H-imidazole-5-carboxamide]: the EC50 was below 10 nM.
The figure for `CC(C)n1ncc(C2(O)CC3CC(c4ncn(C)c4C(=O)Nc4ccc(F)c(Cl)c4)CC3C2)c1C(F)(F)F` (stereo not drawn) [Example 158, N-(3-Chloro-4-fluorophenyl)-4-(5-hydroxy-5-(1-isopropyl-5-(trifluoromethyl)-1H-pyrazol-4-yl)octahydropentalen-2-yl)-1-methyl-1H-imidazole-5-carboxamide] is below 10 nM.
The figure for `CC(C)C(N)C(=O)Nc1cc(C2(O)CC3CC(c4ncn(C)c4C(=O)Nc4ccc(F)c(Cl)c4)CC3C2)n(C)n1` (stereo not drawn) [Example 220, 4-(5-(3-(2-Amino-3-methylbutanamido)-1-methyl-1H-pyrazol-5-yl)-5-hydroxyoctahydropentalen-2-yl)-N-(3-chloro-4-fluorophenyl)-1-methyl-1H-imidazole-5-carboxamide] is below 10 nM.
The figure for `CC(=O)Nc1cc(C2(O)CC3CC(c4ncn(C)c4C(=O)Nc4ccc(F)c(Cl)c4)CC3C2)n(C(C)C)n1` (stereo not drawn) [Example 166, 4-(5-(3-Acetamido-1-isopropyl-1H-pyrazol-5-yl)-5-hydroxyoctahydropentalen-2-yl)-N-(3-chloro-4-fluorophenyl)-1-methyl-1H-imidazole-5-carboxamide] is below 10 nM.
As for `Cn1cnc(C2CC3CC(O)(c4cc(C(C)(C)C(F)(F)F)nn4C)CC3C2)c1C(=O)Nc1ccc(F)c(Cl)c1` (stereo not drawn) [Example 105, N-(3-chloro-4-fluorophenyl)-4-(5-hydroxy-5-(1-methyl-3-(1,1,1-trifluoro-2-methylpropan-2-yl)-1H-pyrazol-5-yl)octahydropentalen-2-yl)-1-methyl-1H-imidazole-5-carboxamide], the EC50 is below 10 nM.
On to `CCn1ncc(C2(O)CC3CC(c4ncn(C)c4C(=O)Nc4ccc(F)c(Cl)c4)CC3C2)c1C(F)(F)F` (stereo not drawn) [Example 174, N-(3-Chloro-4-fluorophenyl)-4-(5-(1-ethyl-5-(trifluoromethyl)-1H-pyrazol-4-yl)-5-hydroxyoctahydropentalen-2-yl)-1-methyl-1H-imidazole-5-carboxamide], for which the EC50 was below 10 nM.
As for `Cn1cnc(C2CC3CC(O)(c4cc(C(N)=O)nn4C)CC3C2)c1C(=O)Nc1ccc(F)c(Cl)c1` (stereo not drawn) [Example 176, 5-(5-(5-((3-Chloro-4-fluorophenyl)carbamoyl)-1-methyl-1H-imidazol-4-yl)-2-hydroxyoctahydropentalen-2-yl)-1-methyl-1H-pyrazole-3-carboxamide], the 50% effective concentration (EC50) was below 10 nM.
For `CCn1nc(N)c(Cl)c1C1(O)CC2CC(c3ncn(C)c3C(=O)Nc3ccc(F)c(Cl)c3)CC2C1` (stereo not drawn) [Example 168, 4-(5-(3-Amino-4-chloro-1-ethyl-1H-pyrazol-5-yl)-5-hydroxyoctahydropentalen-2-yl)-N-(3-chloro-4-fluorophenyl)-1-methyl-1H-imidazole-5-carboxamide], the half-maximal effective concentration (EC50) lay in the range of 10 to 50 nM.
To `CC(=O)N1CCn2c(nc(C3CC4CC(O)CC4C3)c2C(=O)Nc2ccc(F)c(Cl)c2)C1` (stereo not drawn) [Example 87, 7-acetyl-N-(3-chloro-4-fluorophenyl)-2-(5-hydroxyoctahydropentalen-2-yl)-5,6,7,8-tetrahydroimidazo[1,2-a]pyrazine-3-carboxamide] belongs below 10 nM.
Regarding `CC(O)COc1cc(C2(O)CC3CC(c4ncn(C)c4C(=O)Nc4ccc(F)c(Cl)c4)CC3C2)n(C)n1` (stereo not drawn) [Example 208, N-(3-Chloro-4-fluorophenyl)-4-(5-hydroxy-5-(3-(2-hydroxypropoxy)-1-methyl-1H-pyrazol-5-yl)octahydropentalen-2-yl)-1-methyl-1H-imidazole-5-carboxamide], the half-maximal effective concentration (EC50) was below 10 nM.
Turning to `CC(O)c1nn(C)cc1C1(O)CC2CC(c3ncn(C)c3C(=O)Nc3ccc(F)c(Cl)c3)CC2C1` (stereo not drawn) [Example 186, N-(3-Chloro-4-fluorophenyl)-4-(5-hydroxy-5-(3-(1-hydroxyethyl)-1-methyl-1H-pyrazol-4-yl)octahydropentalen-2-yl)-1-methyl-1H-imidazole-5-carboxamide], the EC50 was below 10 nM.
With `CCNc1nc(C2CC3CC(O)CC3C2)c(C(=O)Nc2ccc(F)c(Cl)c2)n1C` (stereo not drawn) [Example 41, 5-[-5-Hydroxy-1,2,3,3a,4,5,6,6a-octahydropentalen-2-yl]-N-(3-chloro-4-fluorophenyl)-2-(ethylamino)-3-methyl-4-imidazolecarboxamide], the EC50 lay in the range of 10 to 50 nM.
Take `O=C(Nc1ccc(F)c(Cl)c1)c1[nH]cnc1C1CC2CC(O)CC2C1` (stereo not drawn) [Example 223]: the concentration giving a half-maximal response (EC50) was 50 to 500 nM.
`Cn1cc(C2(O)CC3CC(c4ncn(C)c4C(=O)Nc4ccc(F)c(Cl)c4)CC3C2)c(C(C)(C)O)n1` (stereo not drawn) [Example 187, N-(3-Chloro-4-fluorophenyl)-4-(5-hydroxy-5-(3-(2-hydroxypropan-2-yl)-1-methyl-1H-pyrazol-4-yl)octahydropentalen-2-yl)-1-methyl-1H-imidazole-5-carboxamide]: the EC50 is below 10 nM.
The figure for `CC(CO)Nc1cc(C2(O)CC3CC(c4ncn(C)c4C(=O)Nc4ccc(F)c(Cl)c4)CC3C2)n(C)n1` (stereo not drawn) [Example 217, N-(3-Chloro-4-fluorophenyl)-4-(5-hydroxy-5-(3-((1-hydroxypropan-2-yl)amino)-1-methyl-1H-pyrazol-5-yl)octahydropentalen-2-yl)-1-methyl-1H-imidazole-5-carboxamide] is below 10 nM; for `Cn1nc(C(F)(F)F)cc1C1(O)CC2CC(c3nc(Cl)n(C)c3C(=O)Nc3ccc(F)c(Cl)c3)CC2C1` (stereo not drawn) [Example 111, 2-Chloro-N-(3-chloro-4-fluorophenyl)-4-(5-hydroxy-5-(1-methyl-3-(trifluoromethyl)-1H-pyrazol-5-yl)octahydropentalen-2-yl)-1-methyl-1H-imidazole-5-carboxamide] it is 10 to 50 nM; for `Cn1cnc(C2CC3CC(O)(c4cc(C(F)F)nn4C)CC3C2)c1C(=O)Nc1ccc(F)c(Cl)c1` (stereo not drawn) [Example 133, N-(3-chloro-4-fluorophenyl)-4-(5-(3-(difluoromethyl)-1-methyl-1H-pyrazol-5-yl)-5-hydroxyoctahydropentalen-2-yl)-1-methyl-1H-imidazole-5-carboxamide] it is below 10 nM.
Take `Cn1cnc(C2CC3CC(=O)CC3C2)c1C(=O)Nc1ccc(F)c(Cl)c1` (single isomer, unassigned) [Example 1, N-(3-Chloro-4-fluorophenyl)-1-methyl-4-(5-oxooctahydropentalen-2-yl)-1H-imidazole-5-carboxamide]: the concentration giving a half-maximal response (EC50) was below 10 nM.
